≈ marks a conversion by molar mass, not a printed value.
Experiments:
[1] = system: Mycolicibacterium smegmatis; experiment: Antitubercular activity against Mycobacterium smegmatis ATCC 700084 after 48 hrs by microdilution assay; type: functional
RWPE-1 = experiment: Cytotoxicity against human RWPE-1 cells assessed as cell viability at 50 ug/ml after 72 hrs by MTT assay; type: toxicity, cell-based; details: rwpe-1, 72 h, dose 50 µg/ml
[2] = system: Mycobacterium tuberculosis; experiment: Antitubercular activity against Mycobacterium tuberculosis H37Rv; type: functional

SMILES | MIC [1] [µg/mL] | Activity (RWPE-1) | MIC [2] [µg/mL]
Nc1ccc2oc3ccccc3c2c1 | 3.13 (≈ 17.1 µM) | Toxic | 64 (≈ 349 µM)
Nc1ccc2[nH]ccc2c1 | > 100 | – | –
Nc1ccc2c(c1)-c1ccccc1S2(=O)=O | > 100 | – | –
CCCCCCNc1ccc2sc3ccccc3c2c1 | > 100 | – | –
c1ccc2c(c1)sc1ccc(N3CCOCC3)cc12 | > 100 | – | –
Nc1ccc2sc3ccccc3c2c1 | 3.13 (≈ 15.7 µM) | Toxic | 128 (≈ 642 µM)
c1ccc2c(c1)CCN2c1ccc2sc3ccccc3c2c1 | > 100 | – | –
O=S(=O)(Nc1ccc2sc3ccccc3c2c1)c1ccccc1 | > 100 | – | –
Nc1ccc2ccsc2c1 | 0.78 (≈ 5.23 µM) | Toxic | –
Nc1ccc2[nH]c3ccccc3c2c1 | > 100 | – | 16 (≈ 87.8 µM)
c1ccc2c(c1)CCCN2c1ccc2sc3ccccc3c2c1 | > 100 | – | –
CCNc1ccc2sc3ccccc3c2c1 | > 100 | – | –
Nc1ccc2sccc2c1 | 0.78 (≈ 5.23 µM) | Toxic | –
Nc1ccc2occc2c1 | 1.56 (≈ 11.7 µM) | Toxic | –
CN(c1ccccc1)c1ccc2sc3ccccc3c2c1 | > 100 | – | –
Nc1ccc2c(c1)-c1cc(N)ccc1S2(=O)=O | > 100 | – | < 2
c1ccc(Nc2ccc3sc4ccccc4c3c2)cc1 | > 100 | – | –
Nc1cccc2c1sc1ccccc12 | 12.5 (≈ 62.7 µM) | – | –
OB(O)c1ccc2sc3ccccc3c2c1 | 50 (≈ 219 µM) | – | –
CCN(CC)c1ccc2sc3ccccc3c2c1 | > 100 | – | –
c1ccc2c(c1)sc1ccc(N3CCCC3)cc12 | > 100 | – | –
Nc1cccc2sccc12 | 50 (≈ 335 µM) | – | –
OB(O)c1cccc2c1sc1ccccc12 | > 100 | – | –
c1ccc2c(c1)sc1ccc(NC3CCCCC3)cc12 | > 100 | – | –
c1ccc2c(c1)sc1ccc(-n3cccc3)cc12 | > 100 | – | –
Nc1ccc2c(c1)-c1ccccc1C2 | 25 (≈ 138 µM) | – | 32 (≈ 177 µM)
Nc1ccc2sc3ccc(N)cc3c2c1 | > 100 | – | –
NNC(=O)c1ccncc1 [ISONIAZID] | 3.13 (≈ 22.8 µM) | – | –
